According to patent US9000029B2, “Proline sulfonamide derivatives as orexin receptor antagonists” (Actelion Pharmaceuticals Ltd., priority 2010, dated 2015):

What was measured:
F344 rats = assay: Fear-potentiated startle and forepaw grip strength; assay type: in vivo, rat; conditions: 100 and 300 mg/kg p.o.
From the text: 4) Effects of Compound of Example 26 on Fear-Potentiated Startle
The fear-potentiated startle (FPS) paradigm is a model of conditioned fear [Fendt M et al., Neuroscience Biobehav Rev. 1999, 23, 743-760]. Rats can be trained to associate an initially neutral, soon-to-be conditioned stimulus (CS; e.g., light) with an aversive, unconditioned stimulus (US; e.g., foot shock). When tested after training for their startle reflex response to brief (ms) noise bursts in the absence (no-CS) vs. the presence of the CS, rats generally show greater startle amplitudes during the presence of the CS which now serves as a predictor of shock. In humans a similar training procedure can be implemented and a FPS response can also be evoked in the presence of a shock-predicting CS.
Conditioned fear models including FPS mimic in particular the response to specific threats. […] Rather the compound may reduce those startle reactions as a consequence of reduced fear of the shock-context or reduced fear of the slightly aversive startle-eliciting noise pulses per se.
Male F344 rats were trained for two consecutive days (conditioning phase) to associate a light-stimulus with a foot shock. On the following day they were tested for their response to startle-eliciting noise stimuli which were delivered randomly under light (CS) or dark (no-CS) conditions. Two hours before the test rats were treated with one dose of compound of example 26 (0, 30, 100, 300 mg/kg p.o.). Average startle responses under light (CS) [FIG. 3 A)] and dark conditions (no-CS) [FIG. 3 B)] during the test day were measured and recorded as an electric signal (in mV). Following startle testing, rats underwent an additional forepaw grip strength (in g) [FIG. 3 C)] test to control for potential myorelaxant effects of the compound (dosed at 0, 30, 100, 300 mg/kg p.o.).

Wistar Rats = assay: Social stress-induced hyperthermia and tachycardia; assay type: in vivo, rat; conditions: 100 mg/kg orally two hours before one hour social interaction stress
From the text: 3) Effects on Social Stress-Induced Hyperthermia and Tachycardia
Exposure to both physiological and psychological stress in mammals leads to an elevation of core body temperature and heart rate referred to as stress-induced hyperthermia (SIH) and stress-induced tachycardia (SIT).
The SIH/SIT response can be observed in humans equally well as in rodents providing excellent animal to human translational possibilities.
12 male Wistar rats were implanted intraperitoneally with transmitters that allowed the simultaneous recording of body temperature (in degrees Celsius) [FIG. 2 A)] and heart rate (in beats per minute) [FIG. 2 B)] via external receivers. Rats were treated orally with 100 mg/kg of compound of example 26 two hours before exposure to an one hour-lasting social interaction stress. Columns 1 and 2 show the effect on body temperature [FIG. 2 A)], respectively heart rate [FIG. 2 B)], after vehicle (1) or drug (2) treatment without exposure to stress; columns 3 and 4 show the effect with exposure to stress after vehicle (3) or drug (4) treatment.

SMILES: COc1ccc(S(=O)(=O)N2CCC[C@H]2C(=O)Nc2cc(C)cc(C)c2)cc1 [Example 26, (S)-1-(4-Methoxy-benzenesulfonyl)-pyrrolidine-2-carboxylic acid (3,5-dimethyl-phenyl)-amide]
- forepaw grip strength (myorelaxant effects) (F344 rats): without affecting
- fear-potentiated startle response under CS conditions (F344 rats; two hours before test): significantly reduced
- startle response under no-CS conditions (F344 rats; two hours before test): significantly reduced
- social stress-induced hyperthermia (Wistar Rats): significantly attenuated
- social stress-induced tachycardia (Wistar Rats): significantly attenuated
